From patent US6455551B1, “Use of 1-hydroxy-2-pyridones for treating mucosa diseases which are difficult to treat” (Aventis Pharma Deutschland GmbH, priority 1996, dated 2002)
Values after ≈ are worked out from the molar mass of the structure shown. Read-outs that look alike come from different tables or passages of the source.

What was measured:
Type in all cases: cell-based
[1] = test system: Candida albicans; assay: Microtiter dilution MIC test in RPMI 1640 medium, Candida albicans strains; conditions: read-out: Minimum inhibitory concentration (MIC)
Experimental: (§1) Fluconazole-resistant strains of Candida albicans are isolated from patients who have been treated, for example, with fluconazole for more than one year. For this purpose, samples are taken from the patients' mouths and applied, undiluted or diluted 1:100, to an RPMI 1640 agar (Gibco/BRL, Life Technologies GmbH, D-76339 Eggenstein) which contains about 1.0 μg/ml fluconazole. Resistant Candida albicans strains are isolated, further purified on agar and stored isolated in peptone/dextrose slant agar tubes.
(§2) The activity of Compound 1 and fluconazole is determined by the microtiter dilution technique in RPMI 1640 medium. The growth medium RPMI 1640 buffered with 0.165 M morpholinopropanesulfonic acid pH 7.0 is introduced into 96-well microtiter plates. Serial dilutions by a factor of 2 are prepared for Compound 1 and fluconazole to result in final concentrations of 256 to 0.002 μg/ml of Compound 1 and fluconazole. The microtiter plates prepared in this way are incubated with the Candida strains to be tested. For comparison purposes, the two Candida albicans strains ATCC 90028 and 90029 which are not resistant to fluconazole are included in the test. The initial cell count is 1-5 ×10^3 colony-forming units per ml of growth medium. The microtiter plates are incubated at 35° C. for 48 hours. The minimum inhibitory concentration is determined by photometry at 510 nm.

[2] = test system: Candida krusei; assay: Microtiter dilution MIC test in RPMI 1640 medium, Candida krusei strains; conditions: Pichia kudriavzevii, 48 h, read-out: Minimum inhibitory concentration (MIC)
Experimental: as §1, §2

[3] = test system: Candida glabrata; assay: Microtiter dilution MIC test in RPMI 1640 medium, Candida glabrata strains; conditions: Nakaseomyces glabratus, 48 h, read-out: Minimum inhibitory concentration (MIC)
Experimental: as §2

[4] = test system: Candida guillermondii; assay: Microtiter dilution MIC test in RPMI 1640 medium, Candida guillermondii strain; conditions: Candida guillermondii B47; 35° C., 48 hours; read-out: Minimum inhibitory concentration (MIC)
Experimental: as §1, §2

[5] = test system: Trichomonas vaginalis; assay: In vitro activity on protozoa, Trichomonas vaginalis
Excerpt: (§3) In vitro activity of the Compound 1 on protozoa

[6] = test system: Entamoeba histolytica; assay: In vitro activity on protozoa, Entamoeba histolytica
Excerpt: as §3

[7] = 48 h, Candida albicans 94/3, 35° C.
[8] = 48 h, Candida albicans 94/14, 35° C.
[9] = 48 h, Candida albicans 94/57, 35° C.
[10] = 48 h, Candida albicans 94/62, 35° C.
[11] = 48 h, Candida albicans 94/90, 35° C.
[12] = 48 h, Candida albicans 94/118, 35° C.
[13] = 48 h, Candida albicans 94/134, 35° C.
[14] = 48 h, Candida albicans 94/138, 35° C.
[15] = 48 h, Candida albicans 94/222, 35° C.
[16] = 48 h, Candida albicans 94/231, 35° C.
[17] = 48 h, Candida albicans B6, 35° C.
[18] = 48 h, Candida albicans B70, 35° C.
[19] = 48 h, Candida albicans B75, 35° C.
[20] = ATCC90028, 48 h, Candida albicans ATCC 90028 (not resistant to fluconazole), 35° C.
[21] = ATCC90029, 48 h, Candida albicans ATCC 90029 (not resistant to fluconazole), 35° C.

Row | Compound | MIC [1, 7] | MIC [1, 8] | MIC [1, 9] | MIC [1, 10] | MIC [1, 11] | MIC [1, 12] | MIC [1, 13] | MIC [1, 14] | MIC [1, 15] | MIC [1, 16] | MIC [1, 17] | MIC [1, 18] | MIC [1, 19] | MIC [1, 20] | MIC [1, 21] | MIC ([2]; Candida krusei B1, 35° C.) | MIC ([2]; Candida krusei B4, 35° C.) | MIC ([3]; Candida glabrata B12, 35° C.) | MIC ([3]; Candida glabrata B14, 35° C.) | MIC ([3]; Candida glabrata B18, 35° C.) | other results
1 | Cc1cc(COc2ccc(Oc3ccc(Cl)cc3)cc2)n(O)c(=O)c1 [Compound 1, 6-[4-(4-chlorophenoxy)phenoxymethyl]-1-hydroxy4-methyl-2(1H)-pyridone] | 2 µg/mL (≈ 5.59 µM) | 2 µg/mL (≈ 5.59 µM) | 1 µg/mL (≈ 2.79 µM) | 1 µg/mL (≈ 2.79 µM) | 1 µg/mL (≈ 2.79 µM) | 2 µg/mL (≈ 5.59 µM) | 1 µg/mL (≈ 2.79 µM) | 1 µg/mL (≈ 2.79 µM) | 1 µg/mL (≈ 2.79 µM) | 1 µg/mL (≈ 2.79 µM) | 1 µg/mL (≈ 2.79 µM) | 1 µg/mL (≈ 2.79 µM) | 1 µg/mL (≈ 2.79 µM) | 1 µg/mL (≈ 2.79 µM) | 0.5 µg/mL (≈ 1.4 µM) | 0.5 µg/mL (≈ 1.4 µM) | 1 µg/mL (≈ 2.79 µM) | 0.5 µg/mL (≈ 1.4 µM) | 0.5 µg/mL (≈ 1.4 µM) | 0.5 µg/mL (≈ 1.4 µM) | MIC ([3]; Candida glabrata B21, 35° C.): 1 µg/mL (≈ 2.79 µM); MIC ([3]; Candida glabrata B35, 35° C.): 1 µg/mL (≈ 2.79 µM); MIC ([3]; Candida glabrata B37, 35° C.): 1 µg/mL (≈ 2.79 µM); MIC ([3]; Candida glabrata B38, 35° C.): 1 µg/mL (≈ 2.79 µM); MIC ([3]; Candida glabrata B39, 35° C.): 0.5 µg/mL (≈ 1.4 µM); MIC ([3]; Candida glabrata B40, 35° C.): 1 µg/mL (≈ 2.79 µM); MIC ([3]; Candida glabrata B50, 35° C.): 0.5 µg/mL (≈ 1.4 µM); MIC ([3]; Candida glabrata B51, 35° C.): 0.5 µg/mL (≈ 1.4 µM); MIC [4]: 1 µg/mL (≈ 2.79 µM); MIC ([5]; 2 of n = 5 strains investigated): 125 µg/mL (≈ 349 µM); MIC ([5]; 3 of n = 5 strains investigated): 31.2 µg/mL (≈ 87.2 µM); MIC ([6]; 3 of n = 4 strains investigated): 62.5 µg/mL (≈ 175 µM); MIC ([6]; remaining strain of n = 4 strains investigated (count not given)): 31.2 µg/mL (≈ 87.2 µM)
2 | OC(Cn1cncn1)(Cn1cncn1)c1ccc(F)cc1F [Fluconazole, fluconazole, reference compound] | 32 µg/mL (≈ 104 µM) | 32 µg/mL (≈ 104 µM) | > 256 µg/mL | > 256 µg/mL | > 256 µg/mL | > 256 µg/mL | > 256 µg/mL | > 256 µg/mL | > 256 µg/mL | > 256 µg/mL | 1 µg/mL (≈ 3.27 µM) | > 256 µg/mL | 2 µg/mL (≈ 6.53 µM) | 0.5 µg/mL (≈ 1.63 µM) | 1 µg/mL (≈ 3.27 µM) | 32 µg/mL (≈ 104 µM) | 16 µg/mL (≈ 52.2 µM) | 4 µg/mL (≈ 13.1 µM) | 2 µg/mL (≈ 6.53 µM) | 8 µg/mL (≈ 26.1 µM) | MIC ([3]; Candida glabrata B21, 35° C.): 8 µg/mL (≈ 26.1 µM); MIC ([3]; Candida glabrata B35, 35° C.): 8 µg/mL (≈ 26.1 µM); MIC ([3]; Candida glabrata B37, 35° C.): 16 µg/mL (≈ 52.2 µM); MIC ([3]; Candida glabrata B38, 35° C.): 16 µg/mL (≈ 52.2 µM); MIC ([3]; Candida glabrata B39, 35° C.): 8 µg/mL (≈ 26.1 µM); MIC ([3]; Candida glabrata B40, 35° C.): 16 µg/mL (≈ 52.2 µM); MIC ([3]; Candida glabrata B50, 35° C.): 16 µg/mL (≈ 52.2 µM); MIC ([3]; Candida glabrata B51, 35° C.): 32 µg/mL (≈ 104 µM); MIC [4]: 4 µg/mL (≈ 13.1 µM)
